Test results published in PMC11167782, “Tunlametinib (HL-085) plus vemurafenib in patients with advanced BRAF V600-mutant solid tumors: an open-label, single-arm, multicenter, phase I study” (Experimental Hematology & Oncology, 2024).

Key:
[1] = Phase I study: plasma pharmacokinetics (UPLC-MS/MS); conditions: for AUC(0-t) / AUC / Cmax / Tmax: human, plasma; for AUC(0-t): AUClast; for AUC(0-t) / AUC / Cmax: mean (SD); for AUC: AUCtau
Experimental: PK assessments were performed using a validated ultra-performance liquid chromatography-tandem mass spectrometry method.
All samples analyzed within established storage stability periods.

patients = system: patients; set-up: method as in PMID 21639808; conditions: phase III trial; cited from earlier work
CYP3A4 = system: CYP3A4; set-up: method as in earlier work; conditions: cited from earlier work
BRAF V600-mutant PTC = system: BRAF V600-mutant PTC; set-up: method as in PMID 35658604; conditions: monotherapy; cited from earlier work
BRAF V600-mutant NSCLC = conditions: monotherapy; cited from earlier work
[2] = Multiple dose, Tunlametinib 9mg BID + vemurafenib 720mg BID
[3] = Multiple dose, Tunlametinib 9mg BID + vemurafenib 960mg BID
[4] = Multiple dose, Tunlametinib 12mg BID + vemurafenib 720mg BID
[5] = Multiple dose, Tunlametinib 12mg BID + vemurafenib 960mg BID
[6] = Multiple dose, Vemurafenib 720mg BID Total
[7] = Multiple dose, Vemurafenib 960mg Total
[8] = Single dose, Tunlametinib 9mg BID + vemurafenib 720mg BID
[9] = Single dose, Tunlametinib 9mg BID + vemurafenib 960mg BID
[10] = Single dose, Tunlametinib 12mg BID + vemurafenib 720mg BID
[11] = Single dose, Tunlametinib 12mg BID + vemurafenib 960mg BID
[12] = 720 mg, Multiple dose, Vemurafenib 720mg BID Total
[13] = 720 mg, Single dose, Vemurafenib 720mg BID Total
[14] = 960 mg, Multiple dose, Vemurafenib 960mg Total
[15] = 960 mg, Single dose, Vemurafenib 960mg Total
[16] = vemurafenib, multiple administrations, across doses

In the case of CCCS(=O)(=O)Nc1ccc(F)c(C(=O)c2c[nH]c3ncc(-c4ccc(Cl)cc4)cc23)c1F [Vemurafenib, vemurafenib], the “Cavg, mean (SD)” value [1, 2] is reported as 29792.81 (1092.82) ng/mL, the “Fluctuation%, mean (SD)” value [1, 2] is reported as 37.17 (4.45) % and the “RAUClast (accumulation ratio), mean (SD)” value [1, 2] is reported as 11.76 (5.15). For the same molecule, the “RCmax (accumulation ratio), mean (SD)” value [1, 2] was 8.92 (3.76), the “Cavg, mean (SD)” value [1, 3] was 47113.74 (NC) ng/mL and the “Fluctuation%, mean (SD)” value [1, 3] was 19.95 (NC) %. The “RAUClast (accumulation ratio), mean (SD)” value [1, 3] was 36.26 (58.5), the “RCmax (accumulation ratio), mean (SD)” value [1, 3] was 16.01 (16.13) and the “Cavg, mean (SD)” value [1, 4] was 34081.99 (20393.59) ng/mL. For the same molecule, the “Fluctuation%, mean (SD)” value [1, 4] was 36.48 (16.11) %, the “RAUClast (accumulation ratio), mean (SD)” value [1, 4] was 10.61 (4.88) and the “RAUCtau (accumulation ratio), mean (SD)” value [1, 4] was 13.29 (4.87). For the same molecule, the “RCmax (accumulation ratio), mean (SD)” value [1, 4] was 8.54 (4.03), the “Cavg, mean (SD)” value [1, 5] was 28324.83 (NC) ng/mL and the “Fluctuation%, mean (SD)” value [1, 5] was 25.42 (NC) %. The “RAUClast (accumulation ratio), mean (SD)” value [1, 5] was 10.75 (2.55), the “RCmax (accumulation ratio), mean (SD)” value [1, 5] was 8.23 (1.79) and the “Cavg, mean (SD)” value [1, 6] was 32652.26 (15958.81) ng/mL. For the same molecule, the “Fluctuation%, mean (SD)” value [1, 6] was 36.71 (12.64) %, the “RAUClast (accumulation ratio), mean (SD)” value [1, 6] was 11.10 (4.84) and the “RAUCtau (accumulation ratio), mean (SD)” value [1, 6] was 13.29 (4.87). For the same molecule, the “RCmax (accumulation ratio), mean (SD)” value [1, 6] was 8.70 (3.77), the “Cavg, mean (SD)” value [1, 7] was 45227.97 (17802.57) ng/mL and the “Fluctuation%, mean (SD)” value [1, 7] was 29.65 (16.23) %. For the same molecule, the “RAUClast (accumulation ratio), mean (SD)” value [1, 7] was 23.92 (39.19), the “RAUCtau (accumulation ratio), mean (SD)” value [1, 7] was 14.07 (NC) and the “RCmax (accumulation ratio), mean (SD)” value [1, 7] was 13.22 (11.54). The “AUC_%Extrap, mean (SD)” value [1, 8] was 56.66 (6.57) %, the “AUC_%Extrap, mean (SD)” value [1, 9] was 57.98 (NC) % and the “AUC_%Extrap, mean (SD)” value [1, 10] was 61.30 (6.78) %. For the same molecule, the “AUC_%Extrap, mean (SD)” value [1, 11] was 64.58 (NC) %, the “AUC_%Extrap, mean (SD)” value ([1]; Single dose, Vemurafenib 720mg BID Total) was 60.37 (6.66) % and the “AUC_%Extrap, mean (SD)” value ([1]; Single dose, Vemurafenib 960mg Total) was 61.29 (11.94) %. The AUC(0-t) [1, 12] was 372 µg·h/mL, the AUC(0-t) [1, 13] was 39.3 µg·h/mL and the AUC [1, 12] was 392 µg·h/mL. It also gave an AUC [1, 13] of 41 µg·h/mL, a Cmax [1, 12] of 36600 ng/mL and a Cmax [1, 13] of 4890 ng/mL. The Tmax ([1]; 720 mg, Tmax, median (range), Multiple dose, Vemurafenib 720mg BID Total) was 2.07 h, the Tmax ([1]; 720 mg, Tmax, median (range), Single dose, Vemurafenib 720mg BID Total) was 4 h and the AUC(0-t) [1, 14] was 503 µg·h/mL. The AUC(0-t) [1, 15] was 50.5 µg·h/mL, the AUC [1, 14] was 543 µg·h/mL and the AUC [1, 15] was 61.2 µg·h/mL. It also gave a Cmax [1, 14] of 48300 ng/mL, a Cmax [1, 15] of 6220 ng/mL and a Tmax ([1]; 960 mg, Tmax, median (range), Multiple dose, Vemurafenib 960mg Total) of 3.99 h. The Tmax ([1]; 960 mg, Tmax, median (range), Single dose, Vemurafenib 960mg Total) was 4.01 h, the AUC(0-t) [1, 2] was 376 µg·h/mL and the AUC(0-t) [1, 3] was 530 µg·h/mL. The AUC(0-t) [1, 4] was 379 µg·h/mL, the AUC(0-t) [1, 5] was 456 µg·h/mL and the AUC(0-t) [1, 8] was 45.8 µg·h/mL. The AUC(0-t) [1, 9] was 65.3 µg·h/mL, the AUC(0-t) [1, 10] was 37.2 µg·h/mL and the AUC(0-t) [1, 11] was 47.1 µg·h/mL. For the same molecule, the AUC [1, 2] was 358 µg·h/mL, the AUC [1, 3] was 565 µg·h/mL and the AUC [1, 4] was 409 µg·h/mL. For the same molecule, the AUC [1, 5] was 340 µg·h/mL, the AUC [1, 8] was 55.2 µg·h/mL and the AUC [1, 9] was 118 µg·h/mL. It also gave an AUC [1, 10] of 38.2 µg·h/mL, an AUC [1, 11] of 37.7 µg·h/mL and a Cmax [1, 2] of 37400 ng/mL. The Cmax [1, 3] was 49200 ng/mL, the Cmax [1, 4] was 36800 ng/mL and the Cmax [1, 5] was 42800 ng/mL. The Cmax [1, 8] was 5710 ng/mL, the Cmax [1, 9] was 7360 ng/mL and the Cmax [1, 10] was 4610 ng/mL. The Cmax [1, 11] was 5710 ng/mL, the Tmax ([1]; Tmax, median (range), Multiple dose, Tunlametinib 9mg BID + vemurafenib 720mg BID) was 3.92 h and the Tmax ([1]; Tmax, median (range), Multiple dose, Tunlametinib 9mg BID + vemurafenib 960mg BID) was 4.07 h. The Tmax ([1]; Tmax, median (range), Multiple dose, Tunlametinib 12mg BID + vemurafenib 720mg BID) was 1.93 h, the Tmax ([1]; Tmax, median (range), Multiple dose, Tunlametinib 12mg BID + vemurafenib 960mg BID) was 3.95 h and the Tmax ([1]; Tmax, median (range), Single dose, Tunlametinib 9mg BID + vemurafenib 720mg BID) was 4 h. It also gave a Tmax ([1]; Tmax, median (range), Single dose, Tunlametinib 9mg BID + vemurafenib 960mg BID) of 3.96 h, a Tmax ([1]; Tmax, median (range), Single dose, Tunlametinib 12mg BID + vemurafenib 720mg BID) of 4 h and a Tmax ([1]; Tmax, median (range), Single dose, Tunlametinib 12mg BID + vemurafenib 960mg BID) of 4.07 h. The Tmax ([1]; oral, Median Tmax, vemurafenib, single-dose) was about 4 h, the “Average accumulation ratio based on AUClast” value [1, 16] was 10.6 to 36.3 and the “Average accumulation ratio based on AUCtau” value [1, 16] was 13.3 to 14.1. The “Average accumulation ratio based on Cmax” value [1, 16] was 8.2 to 16.0, the Incidence of photosensitivity (patients) was 30% and the Main metabolizing enzyme (CYP3A4) was “metabolized mainly by CYP3A4”.

For CC(C)(C)c1nc(-c2cccc(NS(=O)(=O)c3c(F)cccc3F)c2F)c(-c2ccnc(N)n2)s1 [dabrafenib], the ORR (BRAF V600-mutant PTC) is listed as 35%, the “Median PFS” value (BRAF V600-mutant NSCLC) is listed as 5.5 months and the ORR (BRAF V600-mutant NSCLC) is listed as 33%.
